Usually EC50 stands for the midpoint of the concentration-response curve. A lower EC50 goes with a more potent agent.

One assay has as its target T1, human α2β1 sGC isozyme (Homo sapiens, UniProt P33402+Q02153).
T1 construct: host or cells: CHO-K1
T1 sequence (P33402 1-732): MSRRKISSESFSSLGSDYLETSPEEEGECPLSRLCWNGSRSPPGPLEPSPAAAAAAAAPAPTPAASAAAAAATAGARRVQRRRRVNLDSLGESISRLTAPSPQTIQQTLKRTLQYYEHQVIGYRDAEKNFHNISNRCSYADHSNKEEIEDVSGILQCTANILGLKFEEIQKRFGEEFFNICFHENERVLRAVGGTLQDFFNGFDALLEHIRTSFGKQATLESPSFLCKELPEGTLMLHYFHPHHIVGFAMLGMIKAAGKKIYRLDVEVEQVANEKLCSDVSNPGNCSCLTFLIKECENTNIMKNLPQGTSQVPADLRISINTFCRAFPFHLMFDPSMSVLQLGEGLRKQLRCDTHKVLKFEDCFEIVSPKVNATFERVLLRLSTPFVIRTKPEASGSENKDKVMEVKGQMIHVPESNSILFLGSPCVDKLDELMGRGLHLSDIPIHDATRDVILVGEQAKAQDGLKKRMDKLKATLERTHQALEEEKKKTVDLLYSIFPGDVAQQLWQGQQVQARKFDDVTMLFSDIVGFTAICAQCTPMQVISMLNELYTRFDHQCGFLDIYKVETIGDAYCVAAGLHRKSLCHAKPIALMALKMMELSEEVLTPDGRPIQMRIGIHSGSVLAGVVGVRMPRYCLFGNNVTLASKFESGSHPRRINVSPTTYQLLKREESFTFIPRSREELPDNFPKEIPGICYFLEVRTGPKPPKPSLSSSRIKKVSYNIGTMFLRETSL
T1 sequence (Q02153 1-619): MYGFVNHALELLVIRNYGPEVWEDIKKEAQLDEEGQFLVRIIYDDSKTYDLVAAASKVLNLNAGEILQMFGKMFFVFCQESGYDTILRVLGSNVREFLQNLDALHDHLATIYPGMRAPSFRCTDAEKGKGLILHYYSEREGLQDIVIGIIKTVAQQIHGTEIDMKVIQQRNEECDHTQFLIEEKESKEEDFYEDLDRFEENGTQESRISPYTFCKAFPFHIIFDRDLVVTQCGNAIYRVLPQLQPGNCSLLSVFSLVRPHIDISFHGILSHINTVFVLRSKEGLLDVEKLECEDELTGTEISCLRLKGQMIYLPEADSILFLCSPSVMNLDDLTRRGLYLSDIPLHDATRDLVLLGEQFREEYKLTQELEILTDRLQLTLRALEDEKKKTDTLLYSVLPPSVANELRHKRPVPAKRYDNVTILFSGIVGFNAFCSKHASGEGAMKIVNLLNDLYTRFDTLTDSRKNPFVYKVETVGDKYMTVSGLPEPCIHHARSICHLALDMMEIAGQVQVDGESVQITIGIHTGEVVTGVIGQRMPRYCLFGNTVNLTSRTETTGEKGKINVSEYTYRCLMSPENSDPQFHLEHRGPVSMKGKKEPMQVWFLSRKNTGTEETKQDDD
Put plainly: cGMP assay on human α2β1 sGC isozyme stably expressed in CHO-K1 cells. Particulars: 10 μM DETA-NONOate, 20 min, cGMP content, geometrical mean. The assay is classed as cell-based. The method, then:
sGC stimulators were dissolved in DMSO as a 10 mM solution and stored at −20° C. To achieve desired test concentrations, stock concentrations were serially diluted into DMSO and then diluted to the appropriate concentration in assay buffer.
CHO-K1 cells stably transfected with human α2β1 sGC isozyme (generated by GenScript for Ironwood) were cultured in F-12K medium (ATCC catalog #30-2004) with 10% fetal calf serum, 4 μg/mL puromycin (Gibco catalog #A11138-03) and 0.4 mg/mL of geneticin (Gibco catalog #10131-027) in a 95% humidified atmosphere containing 5% CO2 in air at 37° C. For GC activity assays, cells were seeded in 384 well poly-D-lysine coated flat bottom plates (Fisher Scientific #08-774-311) in either 50 μL or 70 μL medium at a density of either 3×10^4 cells/well or 15×10^3, respectively. Cells were incubated for 24 hours at 37° C. in a humidified chamber supplemented with 5% CO2. […]
Following incubation with compound, assay buffer was removed and 50 μL of ice-cold 10% acetic acid+150 ng/mL internal standard (+3 cGMP) was added to each well. […] Following centrifugation at 4° C. for 5 min at 1000×g to pellet cell debris, the supernatant was transferred to a clean plate and the samples analyzed for cGMP content.
Data were analyzed with a 4-parameter fit (log(agonist) vs. response—variable slope) using GraphPad Prism Software v.8. […]

In another assay the test system is normotensive rats. Nature of the assay: Blood pressure effects in normotensive rats following acute oral dose. The conditions noted are these: Milli-Q water. The assay is classed as in vivo, rat. As for the experimental part:
Male, normotensive Sprague Dawley rats were purchased from Charles River Laboratories. These rats have indwelling femoral artery catheters installed. Animals were harnessed to a tether system and attached to pressure transducers to monitor cardiovascular (CV) parameters, specifically mean arterial pressure (MAP) and heart rate (HR). Animals were acclimated to the system overnight and baseline CV parameters collected. The conscious, freely moving rats were then administered a single oral dose of the Compound I-14 (doses generated from the sodium salt of Compound 14) in Milli-Q water at 1, 3, 10 and 30 mg/kg. A blood sample was collected from each animal through the catheter line at pre-dose and 2 hours post-dose for compound concentration quantification. Hemodynamic measures were recorded for ten hours post-dose. […]
ADInstruments LabChart (v8) was used to monitor and export hemodynamic data. Blood pressure and heart rate were continuously monitored, and data were collected at 1000 data points per second then averaged into 10-minute bins for analysis. Change from baseline MAP (ΔBMAP) and HR (ΔBHR) were calculated using the pre-dose baseline averaged over the 1-hr period prior to dosing using Microsoft Excel for Microsoft 365. […]
Statistical analyses were performed in Graphpad Prism (v8). […] Vehicle-adjusted HR (ΔVHR) was calculated in a similar manner to ΔVMAP. […]

Molecules are shown by their SMILES. A value given as a limit tells only on which side of the number the result lay.

`Cc1cc(F)c(Cc2nc(-c3ncc(F)c(O)n3)cn3ccnc23)cc1F` [Compound I-14, 5-fluoro-2-(8-(2,5-difluoro-4-methylbenzyl)imidazo[1,2-a]pyrazin-6-yl)pyrimidin-4-ol] had an EC50 at human α2β1 sGC isozyme of no more than 100 nM. For the same compound, in the assay with normotensive rats (3, 10, and 30 mg/kg single oral dose), the “effect on MAP from baseline and as adjusted from vehicle” value is given as “lowered MAP”. Moreover, the “change from baseline MAP (ΔBMAP) compared with vehicle-treated rats” value with normotensive rats (single oral dose 1, 3, 10 and 30 mg/kg, 2-way ANOVA significant) is “greater decrease in MAP”.

The record behind these values is patent US20240208979A1, “sGC STIMULATORS” (Tisento Therapeutics Inc., priority 2021, published 2024).
